The target in this experiment is T1, human mGluR5a receptor (Homo sapiens, UniProt P41594).
T1 construct: cDNA subcloned into pcDNA3.1(-)
As to the kind of experiment: Cell-based functional Ca2+ mobilization assay (FDSS), potentiation of glutamate EC20 response. The note with it: for pEC50 / EC50: HEK cells transfected with human mGluR5 (H10H or H12H), in presence of EC20 glutamate; for EC50: read-out: EC50; for Emax (%): maximum % effect in concentration-response curve, as percent of response to maximally effective glutamate. The method, then:
Human embryonic kidney (HEK) cells transfected with rat mGluR5 were plated in clear bottom assay plates for assay in a Functional Drug Screening System (FDSS). In the alternative assay, HEK cells transfected with human mGluR5 were plated for assay in the FDSS. In some cases the HEK cells transfected with human mGluR5 were the H10H cell line. Alternatively, the HEK cells transfected with human mGluR5 were the H12H cell line. […] The cells were loaded with a Ca^2+-sensitive fluorescent dye (e.g., Fluo-4), and the plates were washed and placed in the FDSS instrument. After establishment of a fluorescence baseline for twelve seconds, the compounds of the present invention were added to the cells, and the response in cells was measured. Alternatively, in various further aspects, after establishment of a fluorescence baseline for about three seconds, the compounds of the present invention were added to the cells, and the response in cells was measured. Five minutes later, an mGluR5 agonist (e.g., glutamate, 3,5-dihydroxyphenylglycine, or quisqualate) was added to the cells, and the response of the cells was measured.
The above described assay operated in two modes. In the first mode, a range of concentrations of the present compounds were added to cells, followed by a single fixed concentration of agonist. If a compound acted as a potentiator, an EC50 value for potentiation and a maximum extent of potentiation by the compound at this concentration of agonist was determined by non-linear curve fitting. In the second mode, several fixed concentrations of the present compounds were added to various wells on a plate, followed by a range of concentrations of agonist for each concentration of present compound; the EC50 values for the agonist at each concentration of compound were determined by non-linear curve fitting. A decrease in the EC50 value of the agonist with increasing concentrations of the present compounds (a leftward shift of the agonist concentration-response curve) is an indication of the degree of mGluR5 potentiation at a given concentration of the present compound. An increase in the EC50 value of the agonist with increasing concentrations of the present compounds (a rightward shift of the agonist concentration-response curve) is an indication of the degree of mGluR5 antagonism at a given concentration of the present compound. The second mode also indicates whether the present compounds also affect the maximum response to mGluR5 to agonists.
The mGluR5 activity was determined using the metabotropic glutamate receptor activity assays in human embryonic kidney cells as described herein, wherein the human embryonic kidney cells were transfected with human mGluR5. The compounds in Table 1 were synthesized with methods identical or analogous to those shown herein. The requisite starting materials were commercially available, described in the literature, or readily synthesized by one skilled in the art of organic synthesis. The compound number given in Table I corresponds to the compound number in Table II and the structure given therein.
Human mGluR5a cDNA in pCMV6-XL6 mammalian expression plasmid was purchased from OriGene Technologies, Inc. (catalogue number SC326357) and subcloned into pcDNA3.1(−). Human embryonic kidney (HEK) 293A cells were then transfected with human mGluR5a pcDNA3.1(−) using LipofectAmine-2000 (Invitrogen) and monoclones were selected and tested for functional response using a Ca^2+ mobilization assay. Monoclones were named for the species (“H” for human) plus the location on the plate (e.g. “10H”).
HEK cells transfected with the human mGluR5a receptor (H10H or H12H cell line) were plated at 15,000 cells/well in clear-bottomed poly-D-lysine-coated assay plates (BD Falcon) in glutamate-glutamine-free growth medium and incubated overnight at 37° C. and 5% CO2.
On the technique in general: A change in cytosolic calcium serves as a functional read-out for many receptors and channels.

One may read the pEC50 as the negative decadic logarithm of the EC50, by convention in mol/L. A word on the EC50: it is the concentration needed to bring the measured effect to its halfway point.

SMILES strings stand for the structures.

T1 sequence (P41594 21-1180 isoform P41594-2 limits assumed): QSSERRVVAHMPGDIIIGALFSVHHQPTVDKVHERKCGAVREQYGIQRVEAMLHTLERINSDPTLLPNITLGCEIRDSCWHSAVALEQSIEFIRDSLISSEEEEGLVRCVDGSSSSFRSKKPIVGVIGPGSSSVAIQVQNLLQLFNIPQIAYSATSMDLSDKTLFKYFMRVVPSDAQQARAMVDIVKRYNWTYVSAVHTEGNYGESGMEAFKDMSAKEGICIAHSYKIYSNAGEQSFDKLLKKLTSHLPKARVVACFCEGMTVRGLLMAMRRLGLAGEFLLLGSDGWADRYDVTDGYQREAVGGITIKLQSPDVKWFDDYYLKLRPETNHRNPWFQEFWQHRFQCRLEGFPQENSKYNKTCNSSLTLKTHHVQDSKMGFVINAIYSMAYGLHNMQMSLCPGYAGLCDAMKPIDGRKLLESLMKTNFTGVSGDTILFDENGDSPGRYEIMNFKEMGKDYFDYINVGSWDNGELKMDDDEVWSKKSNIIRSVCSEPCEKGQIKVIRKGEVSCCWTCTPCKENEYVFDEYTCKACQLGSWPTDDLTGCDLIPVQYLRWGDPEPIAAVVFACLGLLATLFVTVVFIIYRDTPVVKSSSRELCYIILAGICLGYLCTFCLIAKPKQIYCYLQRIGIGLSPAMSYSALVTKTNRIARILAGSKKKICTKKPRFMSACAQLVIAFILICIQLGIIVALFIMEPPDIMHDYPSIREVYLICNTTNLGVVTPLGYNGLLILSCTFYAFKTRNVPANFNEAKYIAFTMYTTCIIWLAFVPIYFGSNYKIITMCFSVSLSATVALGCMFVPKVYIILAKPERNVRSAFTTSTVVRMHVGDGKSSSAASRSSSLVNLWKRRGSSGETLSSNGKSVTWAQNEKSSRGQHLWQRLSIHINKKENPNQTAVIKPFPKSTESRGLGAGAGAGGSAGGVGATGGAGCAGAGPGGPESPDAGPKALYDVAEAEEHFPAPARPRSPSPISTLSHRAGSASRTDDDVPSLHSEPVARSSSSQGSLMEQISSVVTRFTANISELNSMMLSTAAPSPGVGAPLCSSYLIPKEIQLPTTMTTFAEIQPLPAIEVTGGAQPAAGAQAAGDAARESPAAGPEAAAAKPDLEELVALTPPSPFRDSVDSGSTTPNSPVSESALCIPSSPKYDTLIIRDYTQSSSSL

Consider `CC1Cn2nc(COc3ccccc3)cc2C(=O)N1c1ccc(F)cc1` (racemic) [Example 18], for which the pEC50 was found to be 6.79, the EC50 is 162 nM and the “Emax (%)” value amounted to 70%.

With `CC1CN(c2ccc(F)cn2)C(=O)c2cc(COc3ccc(F)cc3)nn21` (racemic) [Example 237], the pEC50 was 6.70, the EC50 is 200 nM and the “Emax (%)” value came to 52%.

In the case of `CC1CNC(=O)c2cc(COc3ccccc3)nn21` (racemic) [Example 250], the pEC50 was less than 5.00, the EC50 was more than 10000 nM and the “Emax (%)” value came to 52%.

In the case of `CC(Oc1ccccc1)c1cc2n(n1)CCN(CC1CC1)C2=O` (racemic) [Example 257], the pEC50 is less than 4.52, the EC50 is more than 30200 nM and the “Emax (%)” value is 25%.

With `CC(Oc1ccccc1)c1cc2n(n1)CCN(c1ccc(F)cc1)C2=O` (racemic) [Example 258], the pEC50 is reported as less than 5.00, the concentration giving a half-maximal response (EC50) is more than 10000 nM and the “Emax (%)” value came to 65%.

On to `O=C1c2cc(COc3ccccc3)nn2C(CO)CN1c1ccc(F)cc1` (racemic) [Example 263], for which the pEC50 was 5.92, the EC50 worked out at 1200 nM and the “Emax (%)” value is on record as 87%.

`O=C1c2cc(COc3ccccc3)nn2C(CF)CN1c1ccc(F)cc1` (racemic) [Example 264]: the pEC50 is 6.95, the EC50 was 112 nM and the “Emax (%)” value is on record as 63%.

Consider `O=C1c2cc(COc3ccccc3)nn2C(F)CN1c1ccc(F)cc1` (racemic) [Example 271], for which the pEC50 was 7.05, the EC50 stood at 89 nM and the “Emax (%)” value was found to be 66%.

In the case of `CC1CN(CC2CC2)C(=O)c2cc(COc3ccccc3)nn21` (single isomer, unassigned) [Example 128], the pEC50 came to 6.85, the EC50 stood at 141 nM and the “Emax (%)” value was found to be 66%.

As for `CC1CN(CC2CC2)C(=O)c2cc(COc3ccccc3)nn21` (single isomer, unassigned) [Example 129], the pEC50 is recorded as less than 4.52, the EC50 is more than 30200 nM and the “Emax (%)” value came to 21%.

For the compound `CC1CN(c2ccc(F)cc2)C(=O)c2cc(COc3ccccc3)nn21` (single isomer, unassigned) [Example 130], the pEC50 is on record as 7.08, the EC50 was 83 nM and the “Emax (%)” value was 71%.

Consider `CC1CN(c2ccc(F)cn2)C(=O)c2cc(COc3ccccc3)nn21` (single isomer, unassigned) [Example 132], for which the pEC50 came out at 7.00, the EC50 was 100 nM and the “Emax (%)” value was 68%.

In the case of `Cc1nc(N2CC(C)n3nc(COc4ccccc4)cc3C2=O)ccc1F` (single isomer, unassigned) [Example 135], the pEC50 was 7.00, the EC50 was found to be 100 nM and the “Emax (%)” value is on record as 56%.

In the case of `CC1CN(c2ccc(F)cc2)C(=O)c2cc(COc3ccc(F)cc3)nn21` (single isomer, unassigned) [Example 238], the pEC50 worked out at 6.87, the EC50 was 135 nM and the “Emax (%)” value was 67%.

Consider `CC1CN(c2ccc(F)cc2)C(=O)c2cc(COc3cccc(F)c3)nn21` (single isomer, unassigned) [Example 239], for which the pEC50 was found to be 7.21, the EC50 worked out at 62 nM and the “Emax (%)” value was 72%.

For the compound `CC1CN(c2ccc(F)cc2)C(=O)c2cc(COc3ccccn3)nn21` (single isomer, unassigned) [Example 240], the pEC50 is recorded as less than 4.52, the EC50 is more than 30200 nM and the “Emax (%)” value is on record as 23%.

As for `O=C1c2cc(COc3ccccc3)nn2C(F)CN1c1ccc(F)cc1` (single isomer, unassigned) [Example 272], the pEC50 is given as 7.04, the concentration giving a half-maximal response (EC50) stood at 91 nM and the “Emax (%)” value was determined as 69%.

The record behind these values is patent publication US8592422B2, “Bicyclic triazole and pyrazole lactams as allosteric modulators of mGluR5 receptors” (Vanderbilt University, priority 2010, dated 2013).
